Data: patent US11124516B2, “Pyrrolo[1,2-A]pyrimidinyl carboxamide compounds and their use in the treatment of medical disorders” (Bial—Biotech Investments, Inc., priority 2016, dated 2021)
Converted amounts (≈) assume the structure as drawn.

Assays:
[1] = target: T1, glucocerebrosidase (Gcase) (Homo sapiens, UniProt P04062); experiment: Glucocerebrosidase (Gcase) activation assay, 4-methylumbelliferyl-beta-D-glucopyranoside substrate, fluorescence; format: biochemical; details: 10 nM GCase, 100 nM saposin C; for activation at 0.1 µM / activation at 1 µM: 0.25 h; for activation at 0.1 µM: pH 4.7, test compound at 0.1 μM, read-out: Percent Gcase Activation 0.1 μM Test Compound; for activation at 1 µM: pH 4.7, test compound at 1.0 μM, read-out: Percent Gcase Activation 1 μM Test Compound; for Percent Gcase Activation 0.1 μM Test Compound: test compound at 0.1 μM; for Percent Gcase Activation 0.1 μM Test Compound / Percent Gcase Activation 1 μM Test Compound: pH 4.7; for Percent Gcase Activation 1 μM Test Compound: test compound at 1.0 μM
T1 sequence (P04062 40-536): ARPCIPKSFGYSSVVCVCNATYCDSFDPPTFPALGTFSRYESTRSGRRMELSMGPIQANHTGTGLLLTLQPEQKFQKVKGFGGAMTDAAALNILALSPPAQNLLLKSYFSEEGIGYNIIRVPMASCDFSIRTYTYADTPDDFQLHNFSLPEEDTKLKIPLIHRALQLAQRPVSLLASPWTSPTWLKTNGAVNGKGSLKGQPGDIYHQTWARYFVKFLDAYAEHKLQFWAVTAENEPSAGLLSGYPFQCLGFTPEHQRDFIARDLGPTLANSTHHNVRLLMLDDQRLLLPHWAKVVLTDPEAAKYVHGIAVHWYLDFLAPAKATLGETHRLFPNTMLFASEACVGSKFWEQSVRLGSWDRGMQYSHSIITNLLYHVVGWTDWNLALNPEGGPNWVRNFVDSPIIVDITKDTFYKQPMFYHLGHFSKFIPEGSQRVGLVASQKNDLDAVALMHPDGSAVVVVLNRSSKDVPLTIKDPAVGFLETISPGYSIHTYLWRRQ
Description: The ability of exemplary compounds to activate glucocerebrosidase (Gcase) was measured.
A 484 μL aliquot of a 1.0 mg/mL solution of phosphatidylserine (PS) (Sigma P7769) in chloroform was evaporated under a stream of nitrogen for 1 hour. The lipid film was dissolved over 4 minutes of vigorous vortexing in 40 mL of 176 mM K2HPO4/50 mM citric acid (pH 4.7) containing 7.5 μL of triton X-100, resulting in a mixed micellar preparation with a composition of 0.32 mM triton and 0.37 mol % PS. 4-Methylumbelliferyl-beta-D-glucopyranoside (ACROS-337025000) was dissolved in the micellar solution to a final concentration of 2 mM for use as the reaction substrate.
Test compounds were diluted to the desired concentrations with dimethylsulfoxide (DMSO) from 10 mM stocks, and 0.41 μL of the DMSO compound mixture was added to 100 μL of micellar solution containing 10 nM GCase and 100 nM saposin C (Enzo ALX-201-262-C050). Pre-incubation was allowed to occur for 30 minutes at room temperature, after which the reaction was initiated by combining 25 μL of substrate solution with 25 μL of compound/GCase/saposin mixture. The reaction proceeded for 15 minutes at room temperature and was stopped by adding 150 μL of 1M glycine, pH 12.5. The endpoint of the reaction was monitored by measuring fluorescence intensity (excitation: 365 nm; emission: 440 nm) on a SpectraMax i3 instrument (Molecular Devices). Test compounds were screened at 1.0 and 0.1 μM final concentration, and subsequent 8-point dose response curves were obtained using 3-fold dilutions from a maximum final concentration of 5 μM.
For experiments in which the test compound was used at a concentration of 1.0 μM, the symbol “+” indicates less than 30% Gcase activation; the symbol “++” indicates Gcase activation in the range of 30% up to 60%; and the symbol “+++” indicates Gcase activation greater than 60%. For experiments in which the test compound was used at a concentration of 0.1 μM, the symbol “*” indicates less than 10% Gcase activation; the symbol “**” indicates Gcase activation in the range of 10% up to 20%; and the symbol “***” indicates greater than 20% Gcase activation.

[2] = Compound solubility in water; format: physicochemical

Compound	activation at 0.1 µM [1]	activation at 1 µM [1]	solubility [2]	Percent Gcase Activation 0.1 μM Test Compound [1]	Percent Gcase Activation 1 μM Test Compound [1]	Compound Solubility in Water [2]
CCc1ccc(C(C)NC(=O)c2ccn3c(C)cc(C)nc23)cc1 (stereo not drawn) [IV-44]	> 20%	> 60%	2 µg/mL (≈ 6.22 µM)			
COCc1cc(C(F)F)n2ccc(C(=O)NC(C)(C)C3CC3)c2n1 [III-4]	> 20%	> 60%	17 µg/mL (≈ 50.4 µM)			
Cc1cc(C)n2ccc(C(=O)NC(CC(C)C)c3cccnc3)c2n1 (stereo not drawn) [IV-52]	< 10%	30 to 60%	17.3 µg/mL (≈ 51.4 µM)			
Cc1cc(-c2cccnc2)nc2c(C(=O)N[C@H]3CC[C@H](OCC(C)(C)C)CC3)ccn12 [III-60]	> 20%	> 60%	1.3 µg/mL (≈ 3.09 µM)			
CCC(NC(=O)c1ccn2c(C)cc(C)nc12)c1cccc(C)n1 (stereo not drawn) [IV-55]	< 10%	< 30%	17.6 µg/mL (≈ 54.6 µM)			
Cc1cc(C)n2ccc(C(=O)NC(C)c3cccc4ccccc34)c2n1 (stereo not drawn) [IV-47]				*** (greater than 20% Gcase activation)	+++ (Gcase activation greater than 60%)	0.7 µg/mL
Cc1cc(-c2ccc(F)cc2)n2ccc(C(=O)N[C@@H](C)C3CC3)c2n1 [III-31]	< 10%	30 to 60%	0.7 µg/mL (≈ 2.07 µM)			
Cc1cc(C(F)F)n2ccc(C(=O)N[C@@H](C)C3CC3)c2n1 [III-8]	> 20%	> 60%	20.1 µg/mL (≈ 68.5 µM)			
Cc1ccc([C@H](C)NC(=O)c2ccn3c(C)cc(C)nc23)cc1 [IV-30]	10 to 20%	> 60%	2.6 µg/mL (≈ 8.46 µM)			
Cc1nc2c(C(=O)N[C@@H](C)C3CC3)ccn2c(C)c1-c1ccc(F)cc1 [III-52]	< 10%	< 30%	1.7 µg/mL (≈ 4.84 µM)			
Cc1cc(-c2cccnc2)nc2c(C(=O)N[C@H]3CC[C@H](OC(C)(C)C)CC3)ccn12 [III-56]	10 to 20%	> 60%	11.6 µg/mL (≈ 28.5 µM)			
CCc1cc(C)nc2c(C(=O)N[C@H]3CC[C@H](OC(C)(C)C)CC3)ccn12 [IV-5]	10 to 20%	> 60%	8.1 µg/mL (≈ 22.7 µM)			
Cc1cc(C)n2c(F)cc(C(=O)N[C@@H](C)C3CC3)c2n1 [IV-17]	10 to 20%	> 60%	21.6 µg/mL (≈ 78.5 µM)			
COc1ccccc1[C@@H](C)NC(=O)c1ccn2c(C)cc(C)nc12 [IV-29]	10 to 20%	> 60%	2.3 µg/mL (≈ 7.11 µM)			
Cc1nc2c(C(=O)NC(C)(C)C3CC3)ccn2c2c1CCC2 [III-72]	< 10%	> 60%	1.5 µg/mL (≈ 5.04 µM)			
Cc1cc(-c2cncnc2)nc2c(C(=O)NC(C)(C)C3CC3)ccn12 [III-42]	10 to 20%	> 60%	3.4 µg/mL (≈ 10.1 µM)			
Cc1ccnc2c(C(=O)NC3(c4ccccc4OC4CC4)CC3)ccn12 [III-34]	< 10%	30 to 60%	6.3 µg/mL (≈ 18.1 µM)			
Cc1cc(C)n2ccc(C(=O)NC(CC(C)C)C3CC3)c2n1 (stereo not drawn) [III-24]	> 20%	> 60%	10.9 µg/mL (≈ 36.4 µM)			
Cc1cc(C)n2ccc(C(=O)NC(C)(C)c3cccc(Cl)c3)c2n1 [IV-40]			1.5 µg/mL (≈ 4.39 µM)	** (Gcase activation in the range of 10% up to 20%)	+++ (Gcase activation greater than 60%)	
Cc1cc(C)n2ccc(C(=O)NC(C)(C)c3ccccc3Cl)c2n1 [IV-22]	10 to 20%	> 60%	1.3 µg/mL (≈ 3.8 µM)			
Cc1cc(C2CCOCC2)nc2c(C(=O)NC(C)(C)C3CC3)ccn12 [III-36]	< 10%	30 to 60%	21.3 µg/mL (≈ 62.4 µM)			
Cc1cc(-c2cccnc2)nc2c(C(=O)NC(C)(C)C3CC3)ccn12 [III-41]	> 20%	> 60%	2.5 µg/mL (≈ 7.48 µM)			

Compound	activation at 0.1 µM [1]	activation at 1 µM [1]	solubility [2]	Percent Gcase Activation 0.1 μM Test Compound [1]	Percent Gcase Activation 1 μM Test Compound [1]	Compound Solubility in Water [2]
Cc1cc(NC2CC3CCC(C2)O3)nc2c(C(=O)NC(C)(C)C3CC3)ccn12 (stereo not drawn) [III-45]	< 10%	30 to 60%	12.3 µg/mL (≈ 32.2 µM)			
Cc1cc(C(F)F)n2ccc(C(=O)N[C@H]3CC[C@H](OC(C)(C)C)CC3)c2n1 [IV-8]	10 to 20%	> 60%	0.9 µg/mL (≈ 2.37 µM)			
COCc1cc(C)n2ccc(C(=O)NC(C)(C)C3CC3)c2n1 [III-15]	10 to 20%	> 60%	21.9 µg/mL (≈ 72.7 µM)			
Cc1cc(-c2ccccn2)nc2c(C(=O)NC(C)(C)C3CC3)ccn12 [III-39]	> 20%	> 60%	0.7 µg/mL (≈ 2.09 µM)			
Cc1cc(C)n2ccc(C(=O)N[C@@H](C)c3ccccc3F)c2n1 [IV-20]	> 20%	> 60%	2.5 µg/mL (≈ 8.03 µM)			
Cc1cc(C)n2ccc(C(=O)N[C@@H](C)C3CC3)c2n1 [III-64]	> 20%	> 60%	21.7 µg/mL (≈ 84.3 µM)			
Cc1cc(C)n2ccc(C(=O)NC(C)c3cn(C)c4ccccc34)c2n1 (stereo not drawn) [IV-49]	10 to 20%	> 60%	2.1 µg/mL (≈ 6.06 µM)			
Cc1cc(C(F)F)n2ccc(C(=O)N[C@H]3CC[C@H](OCC(C)C)CC3)c2n1 [IV-9]	> 20%	> 60%	1.5 µg/mL (≈ 3.95 µM)			
CCCO[C@H]1CC[C@H](NC(=O)c2ccn3c(C(F)F)cc(C)nc23)CC1 [IV-11]	> 20%	> 60%	9 µg/mL (≈ 24.6 µM)			
Cc1cc(C)n2ccc(C(=O)NC3(c4ccc(F)cc4)CCOCC3)c2n1 [III-29]	< 10%	30 to 60%	2.4 µg/mL (≈ 6.53 µM)			
Cc1cc(C)n2ccc(C(=O)NC(C)c3cccc4ccccc34)c2n1 (stereo not drawn) [IV-23]	10 to 20%	> 60%				0.2 µg/mL
Cc1cccc(C2CC2C(C)NC(=O)c2ccn3c(C)cc(C)nc23)c1 (stereo not drawn) [IV-42]	> 20%	> 60%	1.1 µg/mL (≈ 3.17 µM)			
CCC(NC(=O)c1ccn2c(C)cc(C)nc12)c1cccnc1 (stereo not drawn) [IV-50]	< 10%	30 to 60%	24.7 µg/mL (≈ 80.1 µM)			
COCc1cc(C)n2ccc(C(=O)N[C@H]3CC[C@H](OCC(C)C)CC3)c2n1 [IV-4]	10 to 20%	> 60%	16.9 µg/mL (≈ 45.2 µM)			
CCC(NC(=O)c1ccn2c(C)cc(C)nc12)c1ccc(Cl)cc1 (stereo not drawn) [IV-59]	> 20%	> 60%	0.8 µg/mL (≈ 2.34 µM)			
COc1ccc(C(C)NC(=O)c2ccn3c(C)cc(C)nc23)cc1F (stereo not drawn) [IV-61]	> 20%	> 60%	1.9 µg/mL (≈ 5.57 µM)			
CCOc1ccccc1C(C)NC(=O)c1ccn2c(C)cc(C)nc12 (stereo not drawn) [IV-78]	> 20%	> 60%	2.1 µg/mL (≈ 6.22 µM)			
Cc1cc(N2CCOCC2)nc2c(C(=O)NC(C)(C)C3CC3)ccn12 [III-35]	10 to 20%	> 60%	14 µg/mL (≈ 40.9 µM)			
Cc1cc(-c2ccncc2)nc2c(C(=O)NC(C)(C)C3CC3)ccn12 [III-40]	10 to 20%	> 60%	3.5 µg/mL (≈ 10.5 µM)			
Cc1cc(C)n2ccc(C(=O)N[C@@H](C)c3cccc(Cl)c3)c2n1 [IV-28]	10 to 20%	> 60%	0.7 µg/mL (≈ 2.14 µM)			
Cc1cc(C)n2ccc(C(=O)NC(C3CC3)C(F)(F)F)c2n1 (stereo not drawn) [IV-16]	> 20%	> 60%	3.1 µg/mL (≈ 9.96 µM)			
Cc1cc(C)n2ccc(C(=O)N[C@H](C)c3ccc(Cl)cc3)c2n1 [IV-25]	> 20%	> 60%	0.6 µg/mL (≈ 1.83 µM)			
